Results taken from PubChem BioAssay (NCI).
“And” between values parts separate entries of the source, which are not always exact repeats. Equal values may be shown once.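 Where inhibition never reached the appropriate level, the endpoint shown equals the highest concentration tested. Otherwise, values were interpolated linearly from a five-concentration, 48-hour dose response in 96-well plates. Here, GI50 denotes the concentration required for 50% inhibition of growth. TGI: concentration producing complete growth inhibition.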

Key:
Experiment in all cases: NCI anticancer screen, dose series, 48 h
[1] = test system: CCRF-CEM leukemia
[2] = test system: SK-MEL-5 melanoma
[3] = test system: HOP-62 NSCLC
[4] = test system: OVCAR-5 ovarian
[5] = test system: IGROV1 ovarian
[6] = test system: LXFL 529 NSCLC
[7] = test system: RXF 393 renal
[8] = test system: SF-268 CNS
[9] = test system: 786-0 renal
[10] = test system: COLO 205 colon

| Structure (SMILES) | TGI [1] [µM] | TGI [2] [µM] | TGI [3] | TGI [4] [µM] | TGI [5] [µM] | TGI [6] [µM] | TGI [7] | TGI [8] [µM] | TGI [9] | TGI [10] [µM] | GI50 [1] [µM] | GI50 [2] [µM] | GI50 [4] [µM] | GI50 [5] [µM] | GI50 [7] [µM] | GI50 [8] [µM] | GI50 [9] [µM] | GI50 [10] |
| --- | --- | --- | --- | --- | --- | --- | --- | --- | --- | --- | --- | --- | --- | --- | --- | --- | --- | --- |
| CSC(=S)N/N=C/c1nccc2ccccc12 | 8.8 | 2.66 | 10.1 µM | 8.96 | 8.05 | 24.6 | 6.01 µM | 9.65 | 12.6 µM | 1.58 |  |  |  |  |  |  |  |  |
| c1ccc(N2N=C(c3ccco3)CC2c2ccco2)cc1 (stereo unspecified) | > 100 | > 100 | > 100 µM | > 100 | > 100 | > 100 | > 100 µM | > 100 | > 100 µM | > 100 |  |  |  |  |  |  |  |  |
| CSC(=NCCc1c[nH]c2ccccc12)NC#N | > 100 | > 100 | > 100 µM | > 100 | > 100 | > 100 | > 100 µM | > 100 | > 100 µM | > 100 |  |  |  |  |  |  |  |  |
| CCOC(=O)c1cc2c3c(c(O)c(OC)c2s1)N(C(=O)c1cc2c4c(c(O)c(OC)c2s1)N(C(C)=O)CC4)CC3 | > 100 | > 100 | > 100 µM | > 100 | > 100 | > 100 | > 100 µM | > 100 | > 100 µM | > 100 |  |  |  |  |  |  |  |  |
| CCCCN(CCCC)C(=O)/C(CC(=O)c1cccc2ccccc12)=N\NC(=O)c1cc2ccccc2cc1O | 25.3 | 32 | 39.9 µM | 80.5 | 71.3 | > 100 | 63 µM | 70.9 | 77.3 µM | 56.3 |  |  |  |  |  |  |  |  |
| CC(C)(C)c1cc(C=C(C#N)C#N)cc(C(C)(C)C)c1O |  | 3.07 | 6.87 µM and 1.65 µM |  | > 247 | 6.59 | 14.3 µM and 10.5 µM | > 241 | 10.9 µM and 16.4 µM | 0.369 | 0.609 | 0.298 | 0.402 | 0.493 | 0.482 | 0.475 | 0.393 | 0.363 µM and 0.191 µM |
| C/C(=N/NC(=O)C[N+](C)(C)C)C(CN(C)C)C(=O)Nc1ccccc1 (stereo unspecified) | > 100 | > 100 | > 100 µM | > 100 | > 100 | > 100 | > 100 µM | > 100 | > 100 µM | > 100 |  |  |  |  |  |  |  |  |
| Cc1nc(C(N)=S)sc1C(=O)/C=C/c1c(O)ccc2ccccc12 | 54.5 | > 100 | > 100 µM | > 100 | > 100 | > 100 | 98.5 µM | > 100 | > 100 µM | > 100 |  |  |  |  |  |  |  |  |
